Test results as given in a compilation of properties of binary mixtures.
Several values for one entry are separate records, joined by “and”; a condition that tells them apart may be missing. Equal values may be shown once. One block for each molecule: values may come before it.

Experiment: xn = mol fraction of the nth substance listed
Conditions: for speed of sound: x1 = 0.2

Structure (SMILES): CCCC[n+]1ccn(C)c1.F[P-](F)(F)(F)(F)F + CC(C)=O
- electrical conductivity (296.15 K, 101 kPa, x2 = 0.3522): 0.84 S/m
- electrical conductivity (296.15 K, 101 kPa, x2 = 0.8801): 3.91 S/m
- electrical conductivity (296.15 K, 101 kPa, x2 = 0.9514): 2.99 S/m
- electrical conductivity (296.15 K, 101 kPa, x2 = 0.9778): 1.73 S/m

Structure (SMILES): CCCCCCCCCC(=O)O + CCCC[N+](CCCC)(CCCC)CCCC.[Cl-]
- viscosity (298.15 K, 100 kPa, x2 = 0.333): 372 mPa·s
- viscosity (328.15 K, 100 kPa, x2 = 0.333): 73.2 mPa·s
- viscosity (358.15 K, 100 kPa, x2 = 0.333): 22.2 mPa·s

Structure (SMILES): O=S(=O)([N-]S(=O)(=O)C(F)(F)F)C(F)(F)F.[Li+] + COCCOCCOCCOCCOC
- electrical conductivity (298 K, 100 kPa, x1 = 0.143): 0.255 S/m
- electrical conductivity (303 K, 100 kPa, x1 = 0.143): 0.29 S/m
- electrical conductivity (308 K, 100 kPa, x1 = 0.143): 0.325 S/m
- electrical conductivity (313 K, 100 kPa, x1 = 0.143): 0.362 S/m
- electrical conductivity (323 K, 100 kPa, x1 = 0.143): 0.465 S/m

Structure (SMILES): CCCCCCCCn1cc[n+](C)c1.O=S(=O)([N-]S(=O)(=O)C(F)(F)F)C(F)(F)F + c1ccccc1
- viscosity (293 K, 101 kPa, x1 = 0.1): 3.21 mPa·s
- viscosity (293 K, 101 kPa, x1 = 0.4): 23.5 mPa·s
- viscosity (293 K, 101 kPa, x1 = 0.8): 74.4 mPa·s
- viscosity (293 K, 101 kPa, x1 = 1): 113 mPa·s

Structure (SMILES): CC[n+]1ccn(C)c1.O=S(=O)([O-])C(F)(F)F + O
- electrical conductivity (296.75 K, 101 kPa, x2 = 0.304): 1.12 S/m
- electrical conductivity (298.15 K, 101 kPa, x2 = 0.304): 1.23 S/m
- electrical conductivity (298.35 K, 101 kPa, x2 = 0.304): 1.22 S/m
- electrical conductivity (300.65 K, 101 kPa, x2 = 0.304): 1.32 S/m
- electrical conductivity (301.05 K, 101 kPa, x2 = 0.304): 1.33 S/m
- electrical conductivity (301.85 K, 101 kPa, x2 = 0.304): 1.37 S/m
- electrical conductivity (302.75 K, 101 kPa, x2 = 0.304): 1.44 S/m

- electrical conductivity (288.15 K, 100 kPa, x1 = 1): 0.0217 S/m
- electrical conductivity (318.15 K, 100 kPa, x1 = 1): 0.0402 S/m
Structure (SMILES): O + CCCC[n+]1ccn(C)c1.F[B-](F)(F)F

- speed of sound (293.15 K, 100 kPa): 1716 m/s
- speed of sound (298.15 K, 100 kPa): 1704 m/s
- speed of sound (303.15 K, 100 kPa): 1692 m/s
- speed of sound (308.15 K, 100 kPa): 1681 m/s
- speed of sound (313.15 K, 100 kPa): 1654 m/s
Structure (SMILES): CC[N+]1(C)CCCC1.[Br-] + OCCO

Structure (SMILES): CCCC[n+]1ccn(C)c1.[Cl-] + OCCO
- electrical conductivity (303.15 K, 100 kPa, x1 = 0.333): 0.966 S/m
- electrical conductivity (303.15 K, 100 kPa, x1 = 0.5): 1.06 S/m

Structure (SMILES): CCCCCC(=O)O + CCCC[N+](CCCC)(CCCC)CCCC.[Cl-]
- viscosity (298 K, 100 kPa, x2 = 0.5): 320 mPa·s

Structure (SMILES): CCCCCCCCCC[n+]1ccn(C)c1.O=S(=O)([N-]S(=O)(=O)C(F)(F)F)C(F)(F)F + O
- viscosity (293.15 K, 101 kPa, x2 = 0.204): 105 mPa·s
- electrical conductivity (295.15 K, 101 kPa, x2 = 0.204): 0.15 S/m

Structure (SMILES): CCCC[n+]1ccn(C)c1.F[P-](F)(F)(F)(F)F + CCCC[n+]1ccn(C)c1.O=S(=O)([N-]S(=O)(=O)C(F)(F)F)C(F)(F)F
- viscosity (313.15 K, 100 kPa, x1 = 0.25): 36.48 mPa·s
- viscosity (313.15 K, 100 kPa, x1 = 0.75): 73.2 mPa·s

- viscosity (373 K, 100 kPa, x1 = 0.0082): 47 mPa·s
- viscosity (373 K, 100 kPa, x1 = 0.0829): 82 mPa·s
- viscosity (373 K, 100 kPa, x1 = 0.1256): 96 mPa·s
Structure (SMILES): O=C[C@H](O)[C@@H](O)[C@H](O)[C@H](O)CO + CC[n+]1ccn(C)c1.[Cl-]

Structure (SMILES): CCCCn1cc[n+](C)c1.O=S(=O)([N-]S(=O)(=O)C(F)(F)F)c1ccc[cH-]1.[Fe+2].c1cc[cH-]c1 + CCCC[n+]1ccn(C)c1.O=S(=O)([N-]S(=O)(=O)C(F)(F)F)C(F)(F)F
- viscosity (298.15 K, 100 kPa, x2 = 0.461): 1226.1 mPa·s
- viscosity (298.15 K, 100 kPa, x2 = 0.56): 542.8 mPa·s
- viscosity (298.15 K, 100 kPa, x2 = 0.661): 295.4 mPa·s
- viscosity (298.15 K, 100 kPa, x2 = 0.839): 108.5 mPa·s
- viscosity (298.15 K, 100 kPa, x2 = 0.92): 73.3 mPa·s

Structure (SMILES): C[N+](C)(C)CCO.O=S(=O)([N-]S(=O)(=O)C(F)(F)F)C(F)(F)F + OCCOCCOCCOCCO
- viscosity (298.15 K, 101 kPa, x2 = 0.5): 87 mPa·s

Structure (SMILES): CCCCCCCCCCCCOS(=O)(=O)[O-].CCCC[n+]1ccn(C)c1 + O
- viscosity (303 K, 101 kPa, x1 = 0.011): 300 mPa·s
- viscosity (303 K, 101 kPa, x1 = 0.0288): 113000 mPa·s
- viscosity (303 K, 101 kPa, x1 = 0.0626): 1070000 mPa·s
- viscosity (303 K, 101 kPa, x1 = 0.1512): 4200000 mPa·s
- viscosity (303 K, 101 kPa, x1 = 1): 1.32e+07 mPa·s
- viscosity (333 K, 101 kPa, x1 = 0.011): 25000 mPa·s
- viscosity (333 K, 101 kPa, x1 = 0.0288): 335000 mPa·s
- viscosity (333 K, 101 kPa, x1 = 0.1512): 1780000 mPa·s

Structure (SMILES): CC[n+]1ccn(C)c1.[Cl-] + CC#N
- viscosity (373 K, 100 kPa, x2 = 0): 36 mPa·s
- viscosity (373 K, 100 kPa, x2 = 0.158): 19 mPa·s
- viscosity (373 K, 100 kPa, x2 = 0.472): 7 mPa·s
- viscosity (373 K, 100 kPa, x2 = 0.781): 3 mPa·s

Structure (SMILES): CCCC[n+]1ccn(C)c1.F[B-](F)(F)F + O
- electrical conductivity (288.15 K, 100 kPa, x1 = 0.0001): 0.0392 S/m
- electrical conductivity (298.15 K, 100 kPa, x1 = 0.0001): 0.0505 S/m and 0.036 S/m
- electrical conductivity (318.15 K, 100 kPa, x1 = 0.0001): 0.0942 S/m and 0.0522 S/m

Structure (SMILES): CCCCCCCC[n+]1ccn(C)c1.O=S(=O)([N-]S(=O)(=O)C(F)(F)C(F)(F)F)C(F)(F)C(F)(F)F + O
- viscosity (293.15 K, 101 kPa, x2 = 0.148): 167 mPa·s
- electrical conductivity (295.15 K, 101 kPa, x2 = 0.148): 0.13 S/m

- viscosity (298.15 K, 101.3 kPa, x1 = 0.333): 93.4 mPa·s
- viscosity (303.15 K, 101.3 kPa, x1 = 0.333): 72.4 mPa·s
- viscosity (308.15 K, 101.3 kPa, x1 = 0.333): 56.9 mPa·s
- viscosity (313.15 K, 101.3 kPa, x1 = 0.333): 45.3 mPa·s
- viscosity (318.15 K, 101.3 kPa, x1 = 0.333): 36.6 mPa·s
Structure (SMILES): CCCC[P+](CCCC)(CCCC)CCCC.[Br-] + OCCO

- viscosity (298.2 K, 100 kPa, x2 = 0.333): 47.5 mPa·s
- viscosity (298.2 K, 100 kPa, x2 = 0.667): 198 mPa·s
Structure (SMILES): c1c[nH]cn1 + CC[n+]1ccn(C)c1.[Cl-]

Structure (SMILES): CCCCCC[n+]1ccn(C)c1.O=S(=O)([N-]S(=O)(=O)C(F)(F)F)C(F)(F)F + Cc1ccccc1
- electrical conductivity (298.15 K, 100 kPa, x1 = 0.0811): 0.3 S/m
- electrical conductivity (298.15 K, 100 kPa, x1 = 0.1207): 0.4 S/m
- electrical conductivity (298.15 K, 100 kPa, x1 = 0.1708): 0.5 S/m
- electrical conductivity (298.15 K, 100 kPa, x1 = 0.236): 0.6 S/m
- electrical conductivity (298.15 K, 100 kPa, x1 = 0.3246): 0.6 S/m

Structure (SMILES): CCCC[n+]1ccn(C)c1.F[B-](F)(F)F + CO
- electrical conductivity (298.1 K, 101 kPa, x1 = 0.0155): 0.884 S/m
- electrical conductivity (298.1 K, 101 kPa, x1 = 0.0244): 1.16 S/m

Structure (SMILES): OCC(F)(F)F + COP(=O)([O-])OC.Cn1cc[n+](C)c1
- viscosity (298.15 K, 101 kPa, x2 = 0.1815): 6.5 mPa·s
- viscosity (313.15 K, 101 kPa, x2 = 0.1815): 4.6 mPa·s
- viscosity (313.15 K, 101 kPa, x2 = 0.4904): 24.5 mPa·s
- viscosity (313.15 K, 101 kPa, x2 = 0.803): 70.5 mPa·s
- viscosity (333.15 K, 101 kPa, x2 = 0.1815): 3.1 mPa·s
- viscosity (333.15 K, 101 kPa, x2 = 0.4904): 12.8 mPa·s

- viscosity (293.15 K, 100 kPa, x1 = 0.333): 302 mPa·s
- viscosity (293.15 K, 100 kPa, x1 = 0.5): 261 mPa·s
Structure (SMILES): O=c1cc[nH]cc1 + CCCC[n+]1ccn(C)c1.[Cl-]

Structure (SMILES): CC[N+](CC)(CC)CC.[Cl-] + OCC(O)CO
- viscosity (318.15 K, 100 kPa, x1 = 0.333): 94.1 mPa·s

- viscosity (318.15 K, 100 kPa, x1 = 0.333): 178 mPa·s
Structure (SMILES): CCCCC[N+](CCCCC)(CCCCC)CCCCC.[Br-] + CCCCCCCCCC(=O)O

- viscosity (298.15 K, 101 kPa, x2 = 0): 573 mPa·s
- viscosity (298.15 K, 101 kPa, x2 = 0.5): 82.1 mPa·s
Structure (SMILES): CCCC[n+]1ccn(C)c1C.F[B-](F)(F)F + OCCOCCOCCOCCO

Structure (SMILES): CCn1cc[n+](C)c1.O=S(=O)([O-])C(F)(F)C(F)(F)C(F)(F)C(F)(F)F + O
- viscosity (298.15 K, 101.3 kPa, x1 = 0.0001): 1.038 mPa·s
- viscosity (298.15 K, 101.3 kPa, x1 = 0.0005): 1.111 mPa·s
- viscosity (298.15 K, 101.3 kPa, x1 = 0.0011): 1.091 mPa·s
- viscosity (298.15 K, 101.3 kPa, x1 = 0.0018): 1.164 mPa·s
- viscosity (298.15 K, 101.3 kPa, x1 = 0.0049): 1.367 mPa·s
- viscosity (298.15 K, 101.3 kPa, x1 = 0.0109): 1.96 mPa·s
- viscosity (298.15 K, 101.3 kPa, x2 = 0.9783): 3.03 mPa·s

- viscosity (303.15 K, 100 kPa, x2 = 0.5): 196 mPa·s
- viscosity (313.15 K, 100 kPa, x2 = 0.5): 116 mPa·s
- viscosity (323.15 K, 100 kPa, x2 = 0.5): 73.6 mPa·s
- viscosity (333.15 K, 100 kPa, x2 = 0.5): 50.6 mPa·s
- viscosity (343.15 K, 100 kPa, x2 = 0.5): 36.8 mPa·s
- viscosity (353.15 K, 100 kPa, x2 = 0.5): 29.1 mPa·s
Structure (SMILES): CCCCCCCC[n+]1ccn(C)c1C.F[B-](F)(F)F + CCCCCCCC[n+]1ccn(C)c1.F[P-](F)(F)(F)(F)F

Structure (SMILES): CCCO + C=CC[n+]1ccn(C)c1.O=S(=O)([N-]S(=O)(=O)C(F)(F)F)C(F)(F)F
- viscosity (298.15 K, 100 kPa, x2 = 0): 1.91 mPa·s

Structure (SMILES): C[N+](C)(C)CCCl.[Cl-] + OCC(O)CO
- viscosity (318.15 K, 100 kPa, x1 = 0.333): 161 mPa·s
